Series [1] concerns the target T1, D1 receptor (Rattus norvegicus, UniProt P18901). As to the kind of experiment: biochemical. The note with it: [3H]-SCH23390; rat striatal membranes; Table 2; read-out: Binding D1 rat striatum Ki. The procedure: (§1) The tissues were homogenized in 50 mM Tris/HCl buffer, pH 7.4 (1:100 weight/volume).
(§2) The homogenate was centrifuged and the pellet was resuspended, centrifuged again and resuspended in 50 mM Tris/HCl buffer pH 7.4 containing 120 mM NaCl, 5mM KCl, 2mM CaCl2 and 1 mM MgCl2.

The target of series [2] is T2, D2 receptor (Rattus norvegicus, UniProt P61169). As to the kind of experiment: biochemical. The note with it: [3H]-spiperone; rat striatal membranes; Table 2; read-out: Binding D2 rat striatum Ki. The procedure:
as §1, §2
The standard incubation conditions (volume 1 ml) for the assay in which [^3 H]-SCH23390 was used were as follows: 50 mM Tris/HCl buffer (pH 7.4), 0.2 nM [^3 H]-SCH23390, a membrane preparation (3 mg/ml corresponding to 130-150 μg proteins/ml), incubation temperature 37° C. and incubation time 15 minutes. The standard incubation conditions (volume 2 ml) for the assay in which [^3 H]-spiperone was used were as follows: 50 mM Tris/HCl buffer (pH 7.4), 0.2 nM [^3 H]-spiperone, a membrane preparation (3 mg/ml corresponding to 130-150 μg proteins/ml), incubation temperature 37° C. and incubation time 15 minutes.

For a further series, the target named is T3, DA2 (Oryctolagus cuniculus, UniProt G1T1Q0).
T3 construct: Transversal sections (2-3 mm) of rabbit ear artery were suspended in isolated organ baths; from tissue; host or cells: rabbit ear artery (transversal sections)
T3 sequence (G1T1Q0 1-443): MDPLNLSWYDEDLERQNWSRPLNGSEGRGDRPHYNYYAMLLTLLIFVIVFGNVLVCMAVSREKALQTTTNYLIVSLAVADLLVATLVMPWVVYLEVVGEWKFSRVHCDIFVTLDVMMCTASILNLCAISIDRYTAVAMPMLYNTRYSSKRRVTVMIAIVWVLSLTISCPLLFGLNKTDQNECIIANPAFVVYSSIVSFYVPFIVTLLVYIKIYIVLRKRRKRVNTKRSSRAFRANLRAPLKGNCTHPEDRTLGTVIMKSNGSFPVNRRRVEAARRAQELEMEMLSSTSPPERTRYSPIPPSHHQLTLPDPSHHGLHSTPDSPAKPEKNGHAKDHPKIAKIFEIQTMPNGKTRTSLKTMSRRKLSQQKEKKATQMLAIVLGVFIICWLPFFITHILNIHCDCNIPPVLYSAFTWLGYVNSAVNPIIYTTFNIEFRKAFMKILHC
As to the kind of experiment: DA2-agonist activity on electrically stimulated rabbit ear artery. The conditions noted are these: inhibition of contraction induced by electric stimulation; for EC50: read-out: DA2 rabbit ear artery pD2 (-log EC50) (converted).

The test system of the next series is SHR rats. As to the kind of experiment: In vivo antihypertensive activity, systolic blood pressure by tail cuff in conscious SHR rats. Also on record: species or system rat (SHR). How it is done: Male SHR rats, 3-4 months old, fasted 16 hours before the experiment were used. Systolic blood pressure (SBP) and heart rate (HR) were recorded by tail cuff method in conscious animals by means of a BP Recorder (W+W Basile, Italy). Before every pressure determination animals were maintained at 37° C. for 10 minutes.
SBP and HR values were recorded before and at various times up to seven hours after treatment with the tested compounds.
The compounds were administered orally by gavage, in a volume of 10 ml/kg, at doses between 10 and 160 mg/kg. For the administration, the compounds were suspended in carboxymethylcellulose (CMC) 0.5% in water and additioned with Tween 80 (0.3 ml/10 ml of CMC).
The obtained results, expressed as ED30mmHg (mg/kg p.o.) that is the dose causing a decrease of 30 mmHg from the basal value of SBP (about 15% decrease) are the following: […]

The target of series [3] is T1, D1 receptor. Description: Receptor binding, D1 receptor, [3H]-SCH23390, rat striatal membranes (part A). Also on record: membranes from striatal tissues were prepared; from tissue; host or cells: rat striatum (membranes); species or system rat (Sprague-Dawley). The note with it: for pKi: [3H]-SCH23390, rat striatal membranes, Table 1, read-out: Affinity Ki for D1 receptor.

Series [4] deals with T2, D2 receptor. Description: Receptor binding, D2 receptor, [3H]-domperidone, rat striatal membranes (part A). Also on record: membranes from striatal tissues were prepared; from tissue; host or cells: rat striatum (membranes); species or system rat (Sprague-Dawley). The conditions noted are these: for pKi: [3H]-domperidone, rat striatal membranes, Table 1, read-out: Affinity Ki for D2 receptor. How it is done: as §1, §2
For D2 -receptor binding studies [^3 H]-domperidone (0.3 nM) was incubated in a volume of 1000 μl containing buffer and a membrane preparation as above described. In addition bovine serum albumine (BSA) (0.01%) was added. The mixture was incubated at 37° C. for 30 minutes for each concentration of the tested compounds.

For series [5] the following is noted: in words; cited from earlier work.
For a further series, the system named is dopaminergic receptors. The conditions noted are these: in words; cited from earlier work.

The values that follow come from patent publication US5407956A, “2-amino-1,2,3,4-tetrahydronaphthalene derivatives active on the cardiovascular system, processes for their preparation and pharmaceutical compositions containing them” (Zambon Group S.p.A., priority 1992, dated 1995).

In general, pKi refers to −log10 of the Ki, conventionally taken in molar units. By EC50 is commonly meant the concentration needed to bring the measured effect to its halfway point.

Molecules are shown by their SMILES. pKi: −log10 of the molar value. Entries after “also recorded” stand apart in the source; their conditions may differ. Where a name gives a salt, the structure may show the parent alone.

T2 sequence (P61169 whole entry): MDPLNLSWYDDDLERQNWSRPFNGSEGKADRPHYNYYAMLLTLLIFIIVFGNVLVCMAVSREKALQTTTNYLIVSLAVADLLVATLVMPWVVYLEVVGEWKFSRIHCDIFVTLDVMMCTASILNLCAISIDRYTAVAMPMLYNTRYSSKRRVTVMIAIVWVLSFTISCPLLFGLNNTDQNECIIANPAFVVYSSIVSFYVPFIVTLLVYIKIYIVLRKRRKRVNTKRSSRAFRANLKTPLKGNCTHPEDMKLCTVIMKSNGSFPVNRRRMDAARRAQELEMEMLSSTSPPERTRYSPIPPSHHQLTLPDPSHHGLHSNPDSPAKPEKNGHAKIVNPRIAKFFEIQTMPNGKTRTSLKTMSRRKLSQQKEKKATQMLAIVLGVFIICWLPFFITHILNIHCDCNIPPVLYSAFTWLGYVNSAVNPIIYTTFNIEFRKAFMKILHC
T1 sequence (P18901 whole entry): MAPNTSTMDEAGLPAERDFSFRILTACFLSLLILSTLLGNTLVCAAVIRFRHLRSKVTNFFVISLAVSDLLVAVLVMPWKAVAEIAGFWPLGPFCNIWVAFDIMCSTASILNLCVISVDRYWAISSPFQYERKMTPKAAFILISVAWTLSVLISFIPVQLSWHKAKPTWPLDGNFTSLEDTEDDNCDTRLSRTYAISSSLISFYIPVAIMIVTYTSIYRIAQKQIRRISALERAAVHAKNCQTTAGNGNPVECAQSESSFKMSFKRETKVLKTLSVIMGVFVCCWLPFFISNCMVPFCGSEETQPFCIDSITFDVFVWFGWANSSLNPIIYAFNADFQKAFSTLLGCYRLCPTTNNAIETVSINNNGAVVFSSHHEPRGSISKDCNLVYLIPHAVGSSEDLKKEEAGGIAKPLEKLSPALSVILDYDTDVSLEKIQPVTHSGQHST
Description for DA2: DA2 -agonist activity was evaluated as follows. Transversal sections (2-3 mm) of rabbit ear artery were suspended in isolated organ baths containing Krebs-Henseleit solution added with corticosterone (30 μM), desipramine (0.1 μM) and EDTA (10 μM).
The preparation, subjected to a traction of 1 g and to an electric stimulation with field pulses every 5 minutes (10 Hz, 1 msec., 30-60 V, 500 msec. duration) were left stabilize for about 2 hours.
Each preparation was submitted to three increasing concentrations allowing the recovery of the basal conditions before the subsequent administration.

Turning to `CCCN(CCCCCCNCCOc1ccccc1OC)[C@H]1CCc2c(ccc(O)c2O)C1` [Compound 1, S-(-)-N-propyl-N-[6-(2-(2-methoxyphenoxy)ethylamino]hexyl]-5,6-dihydroxy-1,2,3,4-tetrahydro-2-naphthylamine dihydrchloride], the pKi at D1 receptor [1] was 7.05; on D2 receptor [2], 9.30; at D1 receptor [3], 6.71; on D2 receptor [4], 8.40. Besides, the EC50 on DA2 was 0.00107 µM. For the same compound, the ED (30 mmHg) in the series on SHR rats (Rattus norvegicus, oral gavage, about 15% decrease of SBP, read-out: ED30mmHg, dose causing a decrease of 30 mmHg from the basal value of SBP) stood at 22.9 mg/kg. Also, the “Duration of the antihypertensive effect” value in the series on SHR rats (oral) is recorded as “about 4 hours”. Also, at D1 receptor [3] (vs dopamine and dopexamine), the “Potency on D1 receptors, times more potent than dopamine and dopexamine” value is listed as “about 10 times”. Further, the “Potency on D2 receptors, times more potent than dopamine and dopexamine” value on D2 receptor [4] (vs dopamine and dopexamine) was “about 100 times”.

Take `CCCN(CCCCCCNCCOc1ccccc1OC)[C@@H]1CCc2cc(O)c(O)cc2C1` [Compound 2, (R)-N-propyl-N-[6-[2-(2-methoxyphenoxy)ethylamino]hexyl]-6,7-dihydroxyl-1,2,3,4-tetrahydro-2-naphthylamino dihydrochloride]: the negative logarithm of the Ki (pKi) on D1 receptor [1] was 6.50; at D2 receptor [2] it was 8.08. In addition, the concentration giving a half-maximal response (EC50) at DA2 is 0.00437 µM.

`CCCCN(CCCCCCNCCOc1ccccc1OC)[C@H]1CCc2c(ccc(O)c2O)C1` [Compound 3, (S)-N-butyl-N-[6-[2-(2-methoxyphenoxy)ethylamino]hexyl]-5,6-dihydroxy-1,2,3,4-tetrahydro-2-naphthylamine dihydrochloride]: the pKi was 6.25 on D1 receptor [1] and 7.07 at D2 receptor [2]. Further, the EC50 on DA2 was 0.0295 µM.

On to `CCCCN(CCCCCCNCCOc1ccccc1Cl)[C@H]1CCc2c(ccc(O)c2O)C1` [Compound 4, (S)-N-butyl-N-[6-[2-2-(chlorophenoxy)ethylamino]hexyl]-5,6-dihydroxy-1,2,3,4-tetrahydro-2-naphthylamine dihydrochloride], for which the pKi was 6.15 on D1 receptor [1] and 7.10 on D2 receptor [2]. Besides, the EC50 on DA2 is 0.513 µM.

`CCCN(CCCCCCNCCOc1ccc(C)cc1Cl)[C@H]1CCc2c(ccc(O)c2O)C1` [Compound 5, (S)-N-propyl-N-[6-[2-[(2-chloro-4-methyl)phenoxy]ethylamino]-hexyl]-5,6-dihydroxy-1,2,3,4-tetrahydro-2-naphthylamine dihydrochloride]: the figures for the negative-log Ki (pKi) on D1 receptor [1] and on D2 receptor [2] were 6.92 and 8.30, respectively. For the same compound, at DA2, the EC50 was 0.00692 µM.

Turning to `CCCN(CCCNCCOc1ccccc1OC)[C@H]1CCc2c(ccc(O)c2O)C1` [Compound 7, (S)-N-propyl-N-[3-[2-[(2-methoxyphenoxy)ethylamino]propyl]-5,6-dihydroxy-1,2,3,4-tetrahydro-2-naphthylaminedihydrochloride], the pKi on D1 receptor [1] was 5.96; at D2 receptor [2], 8.96. Besides, on DA2, the EC50 is 0.00214 µM.

In the case of `CCCN(CCCNCCOc1ccccc1Cl)[C@@H]1CCc2cc(O)c(O)cc2C1` [Compound 8, (R)-N-propyl-N-[3-[2-[(2-chlorophenoxy)ethylamino]propyl]-6,7-dihydroxy-1,2,3,4-tetrahydro-2-naphthylaminedihydrochloride], the values for the pKi on D1 receptor [1] and on D2 receptor [2] were 5.58 and 7.80, respectively. Also, the concentration giving a half-maximal response (EC50) on DA2 is 0.0447 µM.

On to `CCCCN(CCCNCCOc1ccc(C)cc1OC)[C@H]1CCc2c(ccc(O)c2O)C1` [Compound 9, (S)-N-butyl-N-[3-[2-[(2-methoxy-4-methyl)phenoxy]ethylamino]propyl]-5,6-dihydroxyl-1,2,3,4-teyrahydro-2-naphthylamine dihydrochloride], for which the figures for the negative logarithm of the Ki (pKi) at D1 receptor [1] and at D2 receptor [2] were 4.66 and 6.72, respectively. On DA2, the half-maximal effective concentration (EC50) is 1.05 µM.

Turning to `CCCN(CCCCCCN(C)CCOc1ccccc1OC)[C@H]1CCc2c(ccc(O)c2O)C1` [Compound 10, (S)-N-[2-(5,6-dihydroxy-1,2,3,4-tetrahydro)naphthyl]-N-propyl-N'-methyl-N'-[2-(2-methoxyphenoxy)ethyl]-1,6-hexanediamine dihychloride], the values for the negative-log Ki (pKi) at D1 receptor [1] and on D2 receptor [2] were 6.39 and 8.26, respectively. Besides, the EC50 at DA2 is 0.00339 µM.

For `CCCCN(CCCCCCN(C)CCOc1ccccc1OC)[C@@H]1CCc2cc(O)c(O)cc2C1` [Compound 11, (R)-N-butyl-N-[2-(6,7-dihydroxy-1,2,3,4-tetrahydro)naphthyl]-N'-methyl-N'-[2-(2-methoxyphenoxy)ethyl]-1,6-hexanediamine dihydrochloride], the figures for the negative logarithm of the Ki (pKi) on D1 receptor [1] and at D2 receptor [2] were 4.93 and 6.20, respectively. Besides, the concentration for a half-maximal effect (EC50) at DA2 is 1.35 µM.

For `CCCN(CCCCCCN(C)CCOc1ccc(C)cc1Cl)[C@H]1CCc2c(ccc(O)c2O)C1` [Compound 12, (S)-N-[2-(5,6-dihydroxy-1,2,3,4-tetrahydro)naphthyl]-N-propyl-N'-methyl-N'-[2-[(2-chloro-4-methyl]phenoxyl]ethyl]-1,6-hexanediamine dihydrochloride], the pKi on D1 receptor [1] is 6.74; at D2 receptor [2], 8.08. The concentration for a half-maximal effect (EC50) at DA2 is 0.457 µM.

Regarding `CCCN(CCCN(C)CCOc1ccccc1OC)[C@H]1CCc2c(ccc(O)c2O)C1` [Compound 13, (S)-N-propyl-N-[2-(5,6-dihydroxy-1,2,3,4-tetrahydro)naphthyl]-N'-methyl-N'-[2-(2-methoxyphenoxy)ethyl]-1,3-propanediamine dihydrochloride], the negative-log Ki (pKi) at D1 receptor [1] was 5.44; on D2 receptor [2], 8.01. The EC50 at DA2 is 0.00407 µM.

Regarding `CCCCN(CCCN(C)CCOc1ccc(C)cc1Cl)[C@@H]1CCc2cc(O)c(O)cc2C1` [Compound 14, (R)-N-butyl-N-[2-(6.,7-dihydroxy-l,2,3,4-tetrahydro)naphthyl]-N'-methyl-N'-[2-[(2-chloro-4-methyl)phenoxy]ethyl]-1.3-propanediamine dihydrochloride], the results for the pKi at D1 receptor [1] and at D2 receptor [2] were 5.55 and 6.59, respectively. Also, the EC50 at DA2 was 6.03 µM.

As for `NCCc1ccc(O)c(O)c1` [Dopamine, dopamine], the “DA2 rabbit ear artery pD2 (-log EC50)” value at DA2 is 7.40. Also, the “Oral absorption (literature)” value in series [5] is reported as “lack of absorption by opal route; also recorded: not absorbed when administered by oral route”.

On to `Oc1ccc(CCNCCCCCCNCCc2ccccc2)cc1O` [Dopexamine, dopexamine, reference compound], for which the pKi is 5.49 on D1 receptor [1], 5.77 on D2 receptor [2], 5.65 at D1 receptor [3] and 6.84 at D2 receptor [4]. The 50% effective concentration (EC50) at DA2 is 0.447 µM. In addition, the “Oral absorption (literature)” value in series [5] is “not absorbed when administered by oral route”. The “Agonist activity on dopaminergic receptors relative to dopamine” value with dopaminergic receptors is reported as “less active than dopamine”.
